Blank lines part the entries; values can stand above or below the molecule they belong to.
Key:
[1] = molecular target: T1, Serine/threonine-protein kinase TAO1 (Homo sapiens) (UniProt Q7L7X3); experiment: Selectivity interaction (KinomeScan (DiscoverX)) EUB0000607a TAOK1; conditions: at 10 µM
T1 sequence (whole entry): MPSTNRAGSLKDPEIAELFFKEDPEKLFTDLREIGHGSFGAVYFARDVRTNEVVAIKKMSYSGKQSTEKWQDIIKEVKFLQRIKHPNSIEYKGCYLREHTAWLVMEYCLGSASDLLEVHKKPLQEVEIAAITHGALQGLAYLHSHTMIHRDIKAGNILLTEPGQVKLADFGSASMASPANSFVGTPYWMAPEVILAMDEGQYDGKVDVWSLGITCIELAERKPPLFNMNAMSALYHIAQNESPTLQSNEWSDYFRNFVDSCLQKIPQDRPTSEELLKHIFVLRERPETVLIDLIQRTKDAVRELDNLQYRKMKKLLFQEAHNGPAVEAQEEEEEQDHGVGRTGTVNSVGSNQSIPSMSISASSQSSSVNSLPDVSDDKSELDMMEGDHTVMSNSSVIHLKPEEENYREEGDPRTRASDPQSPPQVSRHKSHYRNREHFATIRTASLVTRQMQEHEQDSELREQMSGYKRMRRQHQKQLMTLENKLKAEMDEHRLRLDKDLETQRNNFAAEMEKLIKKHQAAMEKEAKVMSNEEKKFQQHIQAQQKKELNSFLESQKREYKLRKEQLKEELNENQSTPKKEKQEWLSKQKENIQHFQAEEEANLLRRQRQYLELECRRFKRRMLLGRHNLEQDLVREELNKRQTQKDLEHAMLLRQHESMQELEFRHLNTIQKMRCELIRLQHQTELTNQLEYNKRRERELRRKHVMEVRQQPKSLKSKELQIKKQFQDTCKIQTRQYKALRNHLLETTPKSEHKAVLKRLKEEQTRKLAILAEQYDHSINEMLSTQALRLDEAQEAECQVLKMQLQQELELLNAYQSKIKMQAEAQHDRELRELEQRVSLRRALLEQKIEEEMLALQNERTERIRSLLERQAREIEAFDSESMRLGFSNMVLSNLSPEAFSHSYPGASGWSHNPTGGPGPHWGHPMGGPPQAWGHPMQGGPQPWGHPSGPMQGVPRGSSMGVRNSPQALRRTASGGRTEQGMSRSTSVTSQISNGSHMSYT

[2] = molecular target: Cyclin-dependent kinase 16 (Homo sapiens) (UniProt Q00536); experiment: Selectivity interaction (ActivX KiNativ screen (kinase selectivity in THP-1 cell lysates)) EUB0000639a CDK16; format: subcellular; conditions: lysate, at 0.01 µM
[3] = molecular target: Tyrosine-protein kinase HCK (Homo sapiens) (UniProt P08631); experiment: Selectivity interaction (Kinase panel (Invitrogen)) EUB0000639a HCK; conditions: at 200 nM
[4] = molecular target: T2, Serine/threonine-protein kinase Nek3 (Homo sapiens) (UniProt P51956); experiment: Selectivity interaction (KinomeScan (DiscoverX)) EUB0000695a NEK3; conditions: at 100 nM
T2 sequence (whole entry): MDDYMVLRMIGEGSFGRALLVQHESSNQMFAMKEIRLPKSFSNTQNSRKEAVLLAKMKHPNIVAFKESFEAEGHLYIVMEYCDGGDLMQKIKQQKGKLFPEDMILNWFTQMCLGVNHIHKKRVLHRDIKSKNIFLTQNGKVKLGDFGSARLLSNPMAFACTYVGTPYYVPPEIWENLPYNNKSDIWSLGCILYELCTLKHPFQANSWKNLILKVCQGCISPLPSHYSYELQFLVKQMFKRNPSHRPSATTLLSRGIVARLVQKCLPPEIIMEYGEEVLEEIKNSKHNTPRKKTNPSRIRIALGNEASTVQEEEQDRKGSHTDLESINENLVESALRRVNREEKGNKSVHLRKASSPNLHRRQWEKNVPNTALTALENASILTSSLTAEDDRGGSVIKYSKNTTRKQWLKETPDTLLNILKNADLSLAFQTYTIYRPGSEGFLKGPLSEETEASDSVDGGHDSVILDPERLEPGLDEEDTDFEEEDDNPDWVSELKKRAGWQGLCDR

[5] = molecular target: Receptor-type tyrosine-protein kinase FLT3 (Homo sapiens) (UniProt P36888); experiment: Selectivity interaction (KinomeScan (DiscoverX)) EUB0001049a FLT3; conditions: at 1 µM
[6] = molecular target: Bone morphogenetic protein receptor type-1B (Homo sapiens, UniProt O00238); experiment: Selectivity interaction (KinomeScan (DiscoverX)) EUB0001049a BMPR1B; conditions: at 1 µM
[7] = molecular target: T3, NUAK family SNF1-like kinase 2 (Homo sapiens) (UniProt Q9H093); experiment: Selectivity interaction (KinomeScan (DiscoverX)) EUB0000045b NUAK2
T3 sequence (whole entry): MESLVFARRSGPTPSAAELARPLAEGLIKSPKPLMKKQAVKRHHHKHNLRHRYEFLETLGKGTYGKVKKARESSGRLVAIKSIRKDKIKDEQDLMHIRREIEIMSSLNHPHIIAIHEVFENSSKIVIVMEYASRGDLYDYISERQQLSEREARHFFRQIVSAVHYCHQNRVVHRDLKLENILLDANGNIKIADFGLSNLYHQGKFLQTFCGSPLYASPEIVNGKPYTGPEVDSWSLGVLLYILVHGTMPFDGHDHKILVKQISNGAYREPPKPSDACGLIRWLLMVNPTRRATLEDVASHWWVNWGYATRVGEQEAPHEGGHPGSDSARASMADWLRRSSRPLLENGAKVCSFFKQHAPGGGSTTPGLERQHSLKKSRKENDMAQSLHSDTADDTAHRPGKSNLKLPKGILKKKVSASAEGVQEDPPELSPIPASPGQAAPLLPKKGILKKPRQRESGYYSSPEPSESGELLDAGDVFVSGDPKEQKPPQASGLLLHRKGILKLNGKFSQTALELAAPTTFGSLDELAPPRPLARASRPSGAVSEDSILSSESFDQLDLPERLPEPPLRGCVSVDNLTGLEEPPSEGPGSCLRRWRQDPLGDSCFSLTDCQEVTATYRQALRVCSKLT

[8] = test system: Hepatocyte growth factor receptor (Homo sapiens), P08581 [Y1235D]; conditions: at 10 µM
[9] = molecular target: Ribosomal protein S6 kinase alpha-5 (Homo sapiens) (UniProt O75582); experiment: Selectivity interaction (KinomeScan (DiscoverX)) EUB0001619a RPS6KA5; conditions: at 1 µM
Chain of Ribosomal protein S6 kinase alpha-5 (Homo sapiens) (O75582 whole entry, looked up): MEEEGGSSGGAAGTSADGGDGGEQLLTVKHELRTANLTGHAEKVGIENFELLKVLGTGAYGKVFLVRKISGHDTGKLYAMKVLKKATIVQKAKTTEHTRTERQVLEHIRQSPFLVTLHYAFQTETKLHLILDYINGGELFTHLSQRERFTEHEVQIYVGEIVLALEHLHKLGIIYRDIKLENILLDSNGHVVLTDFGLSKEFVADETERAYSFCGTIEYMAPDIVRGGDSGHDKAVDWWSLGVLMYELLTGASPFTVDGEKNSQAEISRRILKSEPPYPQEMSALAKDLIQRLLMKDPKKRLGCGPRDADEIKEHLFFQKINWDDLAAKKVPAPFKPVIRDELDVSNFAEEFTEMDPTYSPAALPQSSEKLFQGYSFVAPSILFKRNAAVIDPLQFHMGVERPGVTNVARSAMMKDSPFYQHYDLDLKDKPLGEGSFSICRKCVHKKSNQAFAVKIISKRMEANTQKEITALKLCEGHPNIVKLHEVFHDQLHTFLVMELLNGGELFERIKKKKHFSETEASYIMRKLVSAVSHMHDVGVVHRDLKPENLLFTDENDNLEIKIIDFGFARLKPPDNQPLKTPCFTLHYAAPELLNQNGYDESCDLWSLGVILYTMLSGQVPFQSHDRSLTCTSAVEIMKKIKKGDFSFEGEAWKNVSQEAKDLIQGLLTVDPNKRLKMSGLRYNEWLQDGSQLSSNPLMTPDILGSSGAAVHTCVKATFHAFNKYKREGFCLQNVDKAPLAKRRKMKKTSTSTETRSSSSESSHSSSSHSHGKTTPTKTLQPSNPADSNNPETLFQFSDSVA

Chain of Tyrosine-protein kinase HCK (Homo sapiens) (P08631 2-526 limits assumed): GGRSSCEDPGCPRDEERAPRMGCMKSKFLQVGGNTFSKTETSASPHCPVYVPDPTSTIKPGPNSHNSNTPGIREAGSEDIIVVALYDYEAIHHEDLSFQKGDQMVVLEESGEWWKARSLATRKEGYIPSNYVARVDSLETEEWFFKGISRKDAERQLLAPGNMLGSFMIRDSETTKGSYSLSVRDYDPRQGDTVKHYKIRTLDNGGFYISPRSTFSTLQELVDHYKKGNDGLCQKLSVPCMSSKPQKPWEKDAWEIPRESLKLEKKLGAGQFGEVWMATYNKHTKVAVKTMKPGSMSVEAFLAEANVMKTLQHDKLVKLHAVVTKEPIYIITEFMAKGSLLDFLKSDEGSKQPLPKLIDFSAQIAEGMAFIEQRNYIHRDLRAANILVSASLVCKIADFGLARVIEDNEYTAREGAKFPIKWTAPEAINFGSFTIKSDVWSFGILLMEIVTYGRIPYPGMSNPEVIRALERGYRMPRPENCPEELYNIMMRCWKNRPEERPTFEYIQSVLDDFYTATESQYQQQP
Chain of Bone morphogenetic protein receptor type-1B (O00238 whole entry): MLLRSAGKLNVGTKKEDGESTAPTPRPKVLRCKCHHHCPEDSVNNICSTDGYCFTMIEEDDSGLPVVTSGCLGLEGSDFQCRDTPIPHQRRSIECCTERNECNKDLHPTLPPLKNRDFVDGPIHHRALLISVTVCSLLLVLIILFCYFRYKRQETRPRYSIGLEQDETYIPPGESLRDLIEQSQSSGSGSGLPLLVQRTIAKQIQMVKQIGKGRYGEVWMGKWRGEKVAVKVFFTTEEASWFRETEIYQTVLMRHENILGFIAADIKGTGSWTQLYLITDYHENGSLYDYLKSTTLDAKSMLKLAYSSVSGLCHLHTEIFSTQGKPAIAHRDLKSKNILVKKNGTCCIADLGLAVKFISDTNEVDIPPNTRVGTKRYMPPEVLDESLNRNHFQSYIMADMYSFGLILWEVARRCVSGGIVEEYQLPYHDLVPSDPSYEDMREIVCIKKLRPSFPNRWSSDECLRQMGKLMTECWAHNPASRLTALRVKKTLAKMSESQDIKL
Chain of Receptor-type tyrosine-protein kinase FLT3 (Homo sapiens) (P36888 whole entry): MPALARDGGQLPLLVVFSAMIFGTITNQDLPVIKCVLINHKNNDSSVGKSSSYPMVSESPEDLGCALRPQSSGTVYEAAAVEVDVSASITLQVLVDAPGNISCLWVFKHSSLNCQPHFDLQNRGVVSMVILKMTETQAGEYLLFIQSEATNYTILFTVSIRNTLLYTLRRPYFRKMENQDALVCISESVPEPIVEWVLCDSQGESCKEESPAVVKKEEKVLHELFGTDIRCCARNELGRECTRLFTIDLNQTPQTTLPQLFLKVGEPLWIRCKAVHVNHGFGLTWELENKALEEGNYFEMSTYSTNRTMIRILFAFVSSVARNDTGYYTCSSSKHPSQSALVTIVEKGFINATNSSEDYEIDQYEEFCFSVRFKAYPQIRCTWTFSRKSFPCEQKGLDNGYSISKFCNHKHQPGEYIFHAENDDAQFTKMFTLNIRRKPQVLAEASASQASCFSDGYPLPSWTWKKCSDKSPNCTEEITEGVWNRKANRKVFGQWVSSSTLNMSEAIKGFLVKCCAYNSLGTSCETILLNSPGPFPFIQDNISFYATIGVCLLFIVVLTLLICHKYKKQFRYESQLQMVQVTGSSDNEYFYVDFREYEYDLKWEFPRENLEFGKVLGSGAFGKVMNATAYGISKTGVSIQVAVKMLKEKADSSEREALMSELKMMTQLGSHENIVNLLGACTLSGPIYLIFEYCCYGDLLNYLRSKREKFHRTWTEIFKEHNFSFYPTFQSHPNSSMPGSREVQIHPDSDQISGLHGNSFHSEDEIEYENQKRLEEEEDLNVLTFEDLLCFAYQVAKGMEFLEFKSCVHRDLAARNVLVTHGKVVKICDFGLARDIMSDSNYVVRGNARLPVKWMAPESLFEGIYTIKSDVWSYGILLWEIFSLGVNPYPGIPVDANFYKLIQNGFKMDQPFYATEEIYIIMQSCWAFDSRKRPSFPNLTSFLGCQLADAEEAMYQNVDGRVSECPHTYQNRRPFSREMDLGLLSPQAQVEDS
Chain of Cyclin-dependent kinase 16 (Homo sapiens) (Q00536 whole entry): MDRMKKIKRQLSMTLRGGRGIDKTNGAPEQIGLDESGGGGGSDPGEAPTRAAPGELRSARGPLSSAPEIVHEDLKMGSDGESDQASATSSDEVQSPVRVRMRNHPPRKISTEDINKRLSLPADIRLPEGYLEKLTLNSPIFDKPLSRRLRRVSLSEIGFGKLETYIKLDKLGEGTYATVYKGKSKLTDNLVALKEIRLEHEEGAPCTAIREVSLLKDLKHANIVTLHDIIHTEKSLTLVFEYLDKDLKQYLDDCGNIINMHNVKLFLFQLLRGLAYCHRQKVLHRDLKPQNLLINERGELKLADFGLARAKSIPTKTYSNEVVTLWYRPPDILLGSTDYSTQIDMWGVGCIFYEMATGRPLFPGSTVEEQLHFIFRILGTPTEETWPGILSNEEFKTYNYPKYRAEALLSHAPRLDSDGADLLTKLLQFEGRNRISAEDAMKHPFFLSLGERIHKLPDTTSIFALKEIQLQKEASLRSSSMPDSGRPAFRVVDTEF
Chain of Hepatocyte growth factor receptor (Homo sapiens), P08581 [Y1235D] (P08581 whole entry Y1235D): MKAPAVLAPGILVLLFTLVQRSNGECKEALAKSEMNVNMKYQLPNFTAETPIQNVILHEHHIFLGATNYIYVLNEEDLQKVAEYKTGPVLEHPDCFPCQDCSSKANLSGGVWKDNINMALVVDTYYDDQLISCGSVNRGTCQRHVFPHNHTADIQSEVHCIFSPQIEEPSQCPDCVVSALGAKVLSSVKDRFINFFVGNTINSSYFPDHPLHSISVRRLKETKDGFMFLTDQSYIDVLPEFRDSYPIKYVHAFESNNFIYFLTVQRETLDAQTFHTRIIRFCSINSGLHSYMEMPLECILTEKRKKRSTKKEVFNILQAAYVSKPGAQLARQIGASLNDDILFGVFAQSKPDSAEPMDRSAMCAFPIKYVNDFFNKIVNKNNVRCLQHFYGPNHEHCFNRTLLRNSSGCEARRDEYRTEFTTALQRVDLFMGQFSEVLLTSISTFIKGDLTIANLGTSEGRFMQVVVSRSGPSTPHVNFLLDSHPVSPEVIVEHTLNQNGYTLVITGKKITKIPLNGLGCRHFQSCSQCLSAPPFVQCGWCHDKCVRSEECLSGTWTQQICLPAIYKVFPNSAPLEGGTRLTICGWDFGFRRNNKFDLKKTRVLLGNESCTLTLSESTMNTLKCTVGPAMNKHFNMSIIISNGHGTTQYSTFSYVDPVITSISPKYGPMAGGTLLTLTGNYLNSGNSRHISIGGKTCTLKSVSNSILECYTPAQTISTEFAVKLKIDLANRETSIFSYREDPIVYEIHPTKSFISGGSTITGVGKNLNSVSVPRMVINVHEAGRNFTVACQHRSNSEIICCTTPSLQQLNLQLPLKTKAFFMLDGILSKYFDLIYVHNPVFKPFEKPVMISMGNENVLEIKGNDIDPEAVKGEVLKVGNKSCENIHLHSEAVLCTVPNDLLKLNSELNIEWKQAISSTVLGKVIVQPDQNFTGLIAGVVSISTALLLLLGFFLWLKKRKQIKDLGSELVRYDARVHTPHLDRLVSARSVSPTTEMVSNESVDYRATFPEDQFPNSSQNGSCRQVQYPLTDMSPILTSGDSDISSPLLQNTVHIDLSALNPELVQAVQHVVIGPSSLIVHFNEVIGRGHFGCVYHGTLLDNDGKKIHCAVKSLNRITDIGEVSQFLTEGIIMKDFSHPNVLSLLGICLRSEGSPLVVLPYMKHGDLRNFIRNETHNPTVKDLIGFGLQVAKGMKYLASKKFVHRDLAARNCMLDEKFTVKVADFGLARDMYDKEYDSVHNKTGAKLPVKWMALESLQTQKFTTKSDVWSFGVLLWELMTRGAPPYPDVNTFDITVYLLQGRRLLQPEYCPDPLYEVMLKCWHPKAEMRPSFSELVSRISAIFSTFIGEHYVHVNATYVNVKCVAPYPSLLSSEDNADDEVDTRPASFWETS

Compound: CNC(=O)Nc1ccc(-c2nc(N3CC4CCC(C3)O4)c3cnn(C4CCC5(CC4)OCCO5)c3n2)cc1
- % of control [1]: 100%

- % of inhibition [2]: -0.6%
- % of inhibition [3]: 4.23%
Compound: CC[C@@H]1[C@H](F)C(=O)N[C@@H]1COc1nccc2cc(C(N)=O)c(OC)cc12 [ZIMLOVISERTIB]

Compound: Cc1cc(F)c(C(=O)Nc2cccc(-c3nncn3C(C)C)n2)cc1-n1cnc(C2CC2)c1
- % of control [4]: 84%

Compound: COc1cc(Nc2nc(C)cc(-c3cnn4nc(OC)ccc34)n2)cc(C(F)(F)F)c1
- % of control [5]: 64%
- % of control [6]: 81%

Compound: C=CC(=O)Nc1cc(-n2c(=O)ccc3cnc4ccc(-c5ccc(NS(C)(=O)=O)cc5)cc4c32)ccc1C
- % of control ([7]; at 1 µM): 100%
- % of control ([7]; at 10 µM): 100%

Compound: Cc1cc([C@@H](C)Nc2ccccc2C(=O)O)c2nc(N3CCOCC3)cc(=O)n2c1 [AZD-6482]
- % of control [8]: 78%

Compound: N#Cc1cccc(-c2c[nH]c3ncnc(N4CCOCC4)c23)c1
- % of control [9]: 100%

Reference: ChEMBL document CHEMBL5465560, “Selectivity Literature for EUbOPEN Chemogenomic Library” (2024)
